Assay results as given in US20220400680A1, “USE OF ACYLCYANAMIDES OR SALTS THEREOF FOR REGULATING PLANT GROWTH” (Alzchem Trostberg GmbH, priority 2019, published 2022).

Key:
[1] = test system: Table apple, type Boiken apple (C1); test: Greenhouse test, cut apple branches C1 dipped in test solution, bud development stage; type: in vivo, Malus domestica; design: key to Bud development stage, apple branches C1: Stage 0: Buds unchanged; Stage 1: Buds slightly swollen, first green tips visible; Stage 2: strongly swollen, green buds; Stage 3: Buds before breaking open, leaf or flower root already visible; Stage 4: Flower buds fully developed, but still closed, white petals already visible. In the case of the grapevine, stage 4 was the unfolding of the first leaves; Stage 5: Flowers fully open or, in the case of grapevine, unfolding of the flower roots (“Gescheine”) on the fully leafed sprouts
Method: Greenhouse tests were conducted using cut fruit tree branches placed in water jars and maintained under controlled conditions with temperature regulation at approximately 22° C. and natural lighting. C1: Table Apple, Type Boiken Apple Table apple: Malus domestica type Boiken first described in 1828 in Bremen after Deichvogt Boiken. Apple type for rough locations and for almost every soil suitable scattered fruit type, whereby heavy soils and not too warm locations are required. Tree growth initially strong, later medium. Older crowns become broadly spherical and are loosely branched. Flowering starting medium-late and long lasting, petals large with little pink. Yield starting late (October) and irregular; with long shelf life and pressure resistance. […] The test solutions were prepared directly, i.e. without intermediate preparation of a concentrate. For each of the test substances A-1 to A-13, an aqueous solution of 0.15 mol of the test substance and 0.15 g BreakThru® OE-446 was prepared and filled up to a total of 500 g with water. Of bis-cyanamides A-14 and A-15, 0.075 mol each was filled up to 500 g in an analogous manner. These test solutions (in combination with the above 4 species/types Cx) were given the test numbers Cx-A1 to Cx-A15. […] This was done with the following evaluation scale: • Stage 0: […] Flower buds fully developed, but still closed, white petals already visible. […] Flowers fully open or, in the case of grapevine, unfolding of the flower roots (“[…]”) on the fully leafed sprouts.

[2] = test system: Table apple, type Zabergäu-Renette (C2); test: Greenhouse test, cut apple branches C2 dipped in test solution, bud development stage; type: in vivo, Malus domestica; design: key to Bud development stage, apple branches C2: Stage 0: Buds unchanged; Stage 1: Buds slightly swollen, first green tips visible; Stage 2: strongly swollen, green buds; Stage 3: Buds before breaking open, leaf or flower root already visible; Stage 4: Flower buds fully developed, but still closed, white petals already visible. In the case of the grapevine, stage 4 was the unfolding of the first leaves; Stage 5: Flowers fully open or, in the case of grapevine, unfolding of the flower roots (“Gescheine”) on the fully leafed sprouts
Method: Greenhouse tests were conducted using cut fruit tree branches placed in water jars and maintained under controlled conditions with temperature regulation at approximately 22° C. and natural lighting. C2: Table Apple, Type […] Table apple: Malus domestica type […] first developed in 1885 as a chance seedling in Hausen a.d. Zaber/Baden-Württemberg and initially grown as 'Hausener Graue […]'. No defined storage type; requires heavy soils (loam). Tree growth initially strong with oblique upright leading branches, later medium with flat branches. Crown broad and flat-spherical with flat fruiting wood. Leaves large, broad oval and with clearly separated tip. Triploid type with late and long-lasting flowering. Yield starting early, medium high and somewhat alternate. […] The test solutions were prepared directly, i.e. without intermediate preparation of a concentrate. For each of the test substances A-1 to A-13, an aqueous solution of 0.15 mol of the test substance and 0.15 g BreakThru® OE-446 was prepared and filled up to a total of 500 g with water. Of bis-cyanamides A-14 and A-15, 0.075 mol each was filled up to 500 g in an analogous manner. These test solutions (in combination with the above 4 species/types Cx) were given the test numbers Cx-A1 to Cx-A15. […] This was done with the following evaluation scale: • Stage 0: […] Flower buds fully developed, but still closed, white petals already visible. […] Flowers fully open or, in the case of grapevine, unfolding of the flower roots (“[…]”) on the fully leafed sprouts.

[3] = test system: Table cherry, type Burlat (C3); test: Greenhouse test, cut cherry branches C3 dipped in test solution, bud development stage; type: in vivo, Prunus avium; design: key to Bud development stage, cherry branches C3: Stage 0: Buds unchanged; Stage 1: Buds slightly swollen, first green tips visible; Stage 2: strongly swollen, green buds; Stage 3: Buds before breaking open, leaf or flower root already visible; Stage 4: Flower buds fully developed, but still closed, white petals already visible. In the case of the grapevine, stage 4 was the unfolding of the first leaves; Stage 5: Flowers fully open or, in the case of grapevine, unfolding of the flower roots (“Gescheine”) on the fully leafed sprouts; details: for Dormancy-breaking effect according to the definition, cherry C3: stage 4 reached or exceeded after 27 days vs negative control
Method: Greenhouse tests were conducted using cut fruit tree branches placed in water jars and maintained under controlled conditions with temperature regulation at approximately 22° C. and natural lighting. C3: Table Cherry, Type Burlat Table cherry: Prunus avium type Bigarreau Burlat or […] is a strong-growing somewhat sparse growing sweet cherry tree with horizontal side sprouts. The type has been known since 1930 and is one of the most important types in commercial cultivation. […] Medium but regular yields identify the type as a secondary type for early and dry areas. […] The test solutions were prepared directly, i.e. without intermediate preparation of a concentrate. For each of the test substances A-1 to A-13, an aqueous solution of 0.15 mol of the test substance and 0.15 g BreakThru® OE-446 was prepared and filled up to a total of 500 g with water. Of bis-cyanamides A-14 and A-15, 0.075 mol each was filled up to 500 g in an analogous manner. These test solutions (in combination with the above 4 species/types Cx) were given the test numbers Cx-A1 to Cx-A15. […] This was done with the following evaluation scale: • Stage 0: […] Flower buds fully developed, but still closed, white petals already visible. […] Flowers fully open or, in the case of grapevine, unfolding of the flower roots (“[…]”) on the fully leafed sprouts.

[4] = test system: Grape, type Pinot Noir (C4); test: Greenhouse test, cut wine sprouts C4 dipped in test solution, bud development stage; type: in vivo, Vitis vinifera subsp. vinifera; design: key to Bud development stage, wine sprouts C4: Stage 0: Buds unchanged; Stage 1: Buds slightly swollen, first green tips visible; Stage 2: strongly swollen, green buds; Stage 3: Buds before breaking open, leaf or flower root already visible; Stage 4: Flower buds fully developed, but still closed, white petals already visible. In the case of the grapevine, stage 4 was the unfolding of the first leaves; Stage 5: Flowers fully open or, in the case of grapevine, unfolding of the flower roots (“Gescheine”) on the fully leafed sprouts
Method: Greenhouse tests were conducted using cut fruit tree branches placed in water jars and maintained under controlled conditions with temperature regulation at approximately 22° C. and natural lighting. C4: Grape, Type Pinot Noir Grape: Vitis vinifera subsp. vinifera type Pinot Noir is an important and high quality red wine type that has existed for possibly 2000 years. It is cultivated all over the world because the type produces high quality red wines and has sufficient winter frost resistance. The type requires early and good areas with deep, warm, medium-heavy and fertile soils with good water supply. Pinot Noir produces regular, medium-high to high yields. However, there are a large number of clones that differ in yield, berry size and looseness. […] The test solutions were prepared directly, i.e. without intermediate preparation of a concentrate. For each of the test substances A-1 to A-13, an aqueous solution of 0.15 mol of the test substance and 0.15 g BreakThru® OE-446 was prepared and filled up to a total of 500 g with water. Of bis-cyanamides A-14 and A-15, 0.075 mol each was filled up to 500 g in an analogous manner. These test solutions (in combination with the above 4 species/types Cx) were given the test numbers Cx-A1 to Cx-A15. […] This was done with the following evaluation scale: • Stage 0: […] Flower buds fully developed, but still closed, white petals already visible. […] Flowers fully open or, in the case of grapevine, unfolding of the flower roots (“[…]”) on the fully leafed sprouts.

[5] = T1 (14 d), 0.15 mol (A-14, A-15: 0.075 mol) per 500 g solution
[6] = stage 4 reached or exceeded after 36 days vs negative control

SMILES: N#CN [cyanamide]
- Bud development stage, apple branches C1 [1, 5]: 3
- Bud development stage, apple branches C1 ([1]; T2 (16 d)): 4
- Bud development stage, apple branches C1 ([1]; T3 (21 d)): 5
- Bud development stage, apple branches C1 ([1]; T4 (27 d)): 5
- Bud development stage, apple branches C1 ([1]; T5 (36 d)): 5
- Bud development stage, apple branches C1 ([1]; T6 (56 d)): 5
- Bud development stage, apple branches C2 [2, 5]: 0
- Bud development stage, apple branches C2 ([2]; T2 (16 d)): 0
- Bud development stage, apple branches C2 ([2]; T3 (21 d)): 3
- Bud development stage, apple branches C2 ([2]; T4 (27 d)): 4
- Bud development stage, apple branches C2 ([2]; T5 (36 d)): 5
- Bud development stage, apple branches C2 ([2]; T6 (56 d)): 5
- Bud development stage, cherry branches C3 [3, 5]: 2
- Bud development stage, cherry branches C3 ([3]; T2 (16 d)): 4
- Bud development stage, cherry branches C3 ([3]; T3 (21 d)): 5
- Bud development stage, cherry branches C3 ([3]; T4 (27 d)): 5
- Bud development stage, cherry branches C3 ([3]; T5 (36 d)): 5
- Bud development stage, cherry branches C3 ([3]; T6 (56 d)): 5
- Bud development stage, wine sprouts C4 [4, 5]: 0
- Bud development stage, wine sprouts C4 ([4]; T2 (16 d)): 0
- Bud development stage, wine sprouts C4 ([4]; T3 (21 d)): 2
- Bud development stage, wine sprouts C4 ([4]; T4 (27 d)): 5
- Bud development stage, wine sprouts C4 ([4]; T5 (36 d)): 5
- Bud development stage, wine sprouts C4 ([4]; T6 (56 d)): 5

SMILES: CCCC(=O)NC#N.[Na] [Example A-6, Sodium butyryl cyanamide]
- Bud development stage, apple branches C1 [1, 5]: 2
- Bud development stage, apple branches C1 ([1]; T2 (16 d)): 3
- Bud development stage, apple branches C1 ([1]; T3 (21 d)): 4
- Bud development stage, apple branches C1 ([1]; T4 (27 d)): 5
- Bud development stage, apple branches C1 ([1]; T5 (36 d)): 5
- Bud development stage, apple branches C1 ([1]; T6 (56 d)): 5
- Good to very good dormancy-breaking effect, apple C1 ([1]; stage 4 reached or exceeded after 27 days vs negative control): good to very good dormancy-breaking effect
- Dormancy-breaking effect according to the definition, apple C1 [1, 6]: dormancy-breaking effect
- Bud development stage, apple branches C2 [2, 5]: 0
- Bud development stage, apple branches C2 ([2]; T2 (16 d)): 0
- Bud development stage, apple branches C2 ([2]; T3 (21 d)): 1
- Bud development stage, apple branches C2 ([2]; T4 (27 d)): 2
- Bud development stage, apple branches C2 ([2]; T5 (36 d)): 5
- Bud development stage, apple branches C2 ([2]; T6 (56 d)): 5
- Dormancy-breaking effect according to the definition, apple C2 [2, 6]: dormancy-breaking effect
- Bud development stage, cherry branches C3 [3, 5]: 1
- Bud development stage, cherry branches C3 ([3]; T2 (16 d)): 1
- Bud development stage, cherry branches C3 ([3]; T3 (21 d)): 3
- Bud development stage, cherry branches C3 ([3]; T4 (27 d)): 5
- Bud development stage, cherry branches C3 ([3]; T5 (36 d)): 5
- Bud development stage, cherry branches C3 ([3]; T6 (56 d)): 5
- Dormancy-breaking effect according to the definition, cherry C3 [3]: dormancy-breaking effect
- Bud development stage, wine sprouts C4 [4, 5]: 0
- Bud development stage, wine sprouts C4 ([4]; T2 (16 d)): 0
- Bud development stage, wine sprouts C4 ([4]; T3 (21 d)): 0
- Bud development stage, wine sprouts C4 ([4]; T4 (27 d)): 1
- Bud development stage, wine sprouts C4 ([4]; T5 (36 d)): 2
- Bud development stage, wine sprouts C4 ([4]; T6 (56 d)): 5

SMILES: N#CNC(=O)c1ccccc1.[Na] [Example A-4, Sodium benzoyl cyanamide]
- Bud development stage, apple branches C1 [1, 5]: 1
- Bud development stage, apple branches C1 ([1]; T2 (16 d)): 1
- Bud development stage, apple branches C1 ([1]; T3 (21 d)): 1
- Bud development stage, apple branches C1 ([1]; T4 (27 d)): 2
- Bud development stage, apple branches C1 ([1]; T5 (36 d)): 3
- Bud development stage, apple branches C1 ([1]; T6 (56 d)): 4
- Bud development stage, apple branches C2 [2, 5]: 0
- Bud development stage, apple branches C2 ([2]; T2 (16 d)): 0
- Bud development stage, apple branches C2 ([2]; T3 (21 d)): 0
- Bud development stage, apple branches C2 ([2]; T4 (27 d)): 1
- Bud development stage, apple branches C2 ([2]; T5 (36 d)): 2
- Bud development stage, apple branches C2 ([2]; T6 (56 d)): 2
- Bud development stage, cherry branches C3 [3, 5]: 1
- Bud development stage, cherry branches C3 ([3]; T2 (16 d)): 2
- Bud development stage, cherry branches C3 ([3]; T3 (21 d)): 4
- Bud development stage, cherry branches C3 ([3]; T4 (27 d)): 4
- Bud development stage, cherry branches C3 ([3]; T5 (36 d)): 5
- Bud development stage, cherry branches C3 ([3]; T6 (56 d)): 5
- Good to very good dormancy-breaking effect, cherry C3 ([3]; stage 4 reached or exceeded after 21 days vs negative control): good to very good dormancy-breaking effect
- Dormancy-breaking effect according to the definition, cherry C3 [3]: dormancy-breaking effect
- Bud development stage, wine sprouts C4 [4, 5]: 0
- Bud development stage, wine sprouts C4 ([4]; T2 (16 d)): 0
- Bud development stage, wine sprouts C4 ([4]; T3 (21 d)): 0
- Bud development stage, wine sprouts C4 ([4]; T4 (27 d)): 3
- Bud development stage, wine sprouts C4 ([4]; T5 (36 d)): 5
- Bud development stage, wine sprouts C4 ([4]; T6 (56 d)): 5
- Dormancy-breaking effect according to the definition, wine C4 [4, 6]: dormancy-breaking effect
